Entries after “also recorded” stand apart in the source; their conditions may differ.
Legend:
UUO kidney [1] = experiment: Dynamic MRI measurement of the enhancement in the kidney, UUO mice (Example 3); type: in vivo; settings: DOTAREM 10 mM, Example 1 nanoparticles 5 mM
Procedure: The images were acquired with a 7T 300 MHz spectrometer imager, equipped with a linear 1H radiofrequency coil dedicated to mice (Bruker, Karlsruhe, Germany).
The dynamic MRI studies of capture and release of the nanoparticles in the tissues were carried out in vivo and made it possible to determine the change in enhancement in the kidney.
All the manipulations of the animals were carried out in compliance with the institutional animal protocol guidelines in place at Paris Descartes University, submission CEEA34.JS.142.1 and approved by the Institute's animal research committee, and also the ethics protocols of the company regarding mouse inductions. […]
8-week-old female mice of BalbC/JRJ type (n=6) were UUO-treated at just one kidney, i.e. each mouse comprises one lesioned kidney (UUO kidney) and one healthy kidney (reference kidney). […] The physiological respiratory parameters were measured throughout the MRI studies using a nonmagnetic respiratory sensor system (the company SAM, US) and the body temperature was maintained by heating the cradle to the core. […]
A dynamic contrast enhanced DCE sequence was recorded using a specific sequence eliminating the free artefacts of movement in post treatment with a TR of 100 ms and a TE of 4 ms and a tilt angle of 80° in order to ensure T1 MRI weighting; a field of view (FOV) of 3 cm×3 cm and a final matrix of 256 by 256 points. […]

UUO kidney [2] = experiment: High temporal resolution DCE perfusion MRI, UUO model (Example 4); type: in vivo, female BalbC/JRJ mice; settings: DOTAREM 10 mM
Procedure: It provides kinetic profiles of signal enhancement corresponding to the immediate arrival of the imaging agent in the tissue, in particular for probing the first glomerular pass.
The UUO model is induced by clamping the right ureter of female BalbC/JRJ mice according to a biochemically characterized protocol from the literature. All the manipulations of the animals were carried out in compliance with the institutional animal protocol guidelines described in Example 3.
8-week-old female mice of BalbC/JRJ type (n=6) were UUO-treated at the level of just one kidney, i.e. each mouse comprises one lesioned kidney (UUO kidney) and one healthy kidney (reference kidney). A batch of sham mice makes it possible to verify the validity of the contralateral reference with the MRI method developed. 2 batches of n=6 mice and n=6 shams were studied by dynamic MRI 3 days after induction.
The DCE MRI acquisition protocol consists in injecting the two types of imaging agents: reference DOTAREM and AGuIX, namely:
Solution according to the invention: 100 μl of imaging agent dissolved in a 0.9% saline solution, with a 5 mM concentration of AGuIX imaging agent.
Prior art solution: 100 μl of imaging agent dissolved in a 0.9% saline solution with 10 mM concentration of DOTAREM imaging agent. • i) The administration protocol is that of Example 3. • ii) The MRI acquisition protocol itself consists in recording sequential images by means of the T1-weighted FLASH MRI sequence (TR=TE=2.2 ms, spatial resolution 117×310 μm^2), temporal resolution 2.5 s for 10 min with 20 s of precontrast. […] T1 mapping in order to verify the concentration of Gd MRI agent is recorded. • iii) The digital processing method derived from method termed 3TP, three time Points, consists in defining 3 main points: basic reference intensity, point of maximum intensity of enhancement, final clearance time, and calculating the slopes of capture and of release of the agent. Next, a Mann-Whitney biostatistical study is applied to the slope parameters calculated for each of the 6 mice, and for each imaging agent.
Averaged collective method resulting in the value of T1max: • a) Searching for the time T corresponding to the maximum in the overall mean of the DCE MRI intensities. • b) Applying this max to each enhancement profile as Tmax. • c) Taking the mean of 6 enhancement values around the indexed value.

[3] = test system: glomerular and tubular renal disorder model induced by injection of anti-gbm antibodies; experiment: Arterial input function (AIF) by DCE MRI in anti-gbm glomerular and tubular renal disorder model with therapy (Example 6); type: in vivo, male CBA mice; settings: d7 and d14 post-induction, AGuIX 5 mM, DOTAREM 10 mM, 100 μl bolus
Procedure: The high temporal resolution DCE perfusion method with a period 2.5 s for 10 min, with injection of the imaging agent as a 100 μl bolus at […] (method described in Example 4) was applied on another model of glomerular and tubular renal disorder, i.e. model induced by injection of anti-gbm antibodies in the literature.
The DCE MRI acquisition protocol consists in injecting the two types of agents: reference DOTAREM or AGuIX, namely:
solution according to the invention: 100 μl of imaging agent dissolved in a 0.9% saline solution, with a 5 mM concentration of AguIX imaging agent, and
solution according to the prior art: 100 μl of imaging agent dissolved in a 0.9% saline solution, with a 10 mM concentration of DOTAREM imaging agent. […]
An additional parameter corresponding to the arrival of the imaging tracer in the organ, i.e. arterial input function AIF, was also recorded. Measured at the input of the organ studied, the AIF itself at the input of the kidney is an indicator of the functionality. The profile is recorded on the anatomical MRI image at the level of the renal arterial point on the dynamic images acquired at DCE high temporal resolution proposed. […]

## CNC[C@H](O)[C@@H](O)[C@H](O)[C@H](O)CO.O=C([O-])CN1CCN(CC(=O)[O-])CCN(CC(=O)O)CCN(CC(=O)[O-])CC1.[Gd+3] [DOTAREM]
UUO kidney [1]; intravenous, 100 μl, UUO mice
  discrimination between healthy kidney and lesioned (UUO) kidney by MRI enhancement: cannot discriminate between a healthy kidney and a lesioned kidney; also recorded: does not make it possible to significantly differentiate renal functionality of a healthy kidney and of an obstructed kidney; also recorded: does not make it possible to distinguish a healthy kidney from a kidney suffering from a renal disorder
UUO kidney [1]; time course by MRI after intravenous administration
  enhancement profile in the renal cortex, UUO kidney vs reference kidney: enhancement profile is similar between UUO kidney (lesioned kidney) and reference kidney (healthy kidney)
UUO kidney [2]; UUO model, AGuIX 5 mM
  decrease of DCE MRI signal between healthy and pathological kidney condition: 100%
  decrease of DCE MRI signal between healthy and pathological kidney condition, as factor: 2
UUO kidney [2]; intravenous, Example 1 nanoparticles 5 mM
  discrimination between healthy kidney and lesioned kidney (high time resolution DCE MRI): cannot discriminate between a healthy kidney and a lesioned kidney
UUO kidney [2]; intravenous, Example 1 nanoparticles 5 mM, 3 days after induction
  enhancement profile in the renal cortex, UUO kidney vs reference kidney (high time resolution DCE MRI, Mann-Whitney improved 3TP): enhancement profile is similar between UUO kidney (lesioned kidney) and reference kidney (healthy kidney)
[3]
  AIF at the kidney input, control (carrier) mice vs MP mice: identical

From patent US20190022257A1, “ULTRAFINE NANOPARTICLES AS AN IMAGING AGENT FOR DIAGNOSING A RENAL DISORDER” (priority 2016, published 2019)
